From ChEMBL document CHEMBL3991601, “The target landscape of clinical kinase drugs” (Science, 2017)
Calls of active or inactive are those of the source.

Key:
[1] = target: Dual specificity protein kinase CLK2 (Homo sapiens, UniProt P49760)
[2] = target: Serine/threonine-protein kinase MRCK gamma (Homo sapiens, UniProt Q6DT37)
[3] = target: T1, Adenine phosphoribosyltransferase (Homo sapiens, UniProt P07741)
T1 sequence (P07741 whole entry): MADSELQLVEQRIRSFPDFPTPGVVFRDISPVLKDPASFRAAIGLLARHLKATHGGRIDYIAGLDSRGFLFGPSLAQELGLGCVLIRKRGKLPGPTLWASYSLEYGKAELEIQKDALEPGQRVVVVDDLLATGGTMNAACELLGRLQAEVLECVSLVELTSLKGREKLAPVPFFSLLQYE

[4] = target: Dual specificity protein kinase CLK3 (Homo sapiens, UniProt P49761); assay type: subcellular, K-562, COLO 205, SK-N-BE(2) and MV-4-11, Cell lysate; details: read-out: Kd apparent
[5] = target: T2, Phosphatidylinositol 5-phosphate 4-kinase type-2 alpha (Homo sapiens, UniProt P48426)
T2 sequence (P48426 whole entry): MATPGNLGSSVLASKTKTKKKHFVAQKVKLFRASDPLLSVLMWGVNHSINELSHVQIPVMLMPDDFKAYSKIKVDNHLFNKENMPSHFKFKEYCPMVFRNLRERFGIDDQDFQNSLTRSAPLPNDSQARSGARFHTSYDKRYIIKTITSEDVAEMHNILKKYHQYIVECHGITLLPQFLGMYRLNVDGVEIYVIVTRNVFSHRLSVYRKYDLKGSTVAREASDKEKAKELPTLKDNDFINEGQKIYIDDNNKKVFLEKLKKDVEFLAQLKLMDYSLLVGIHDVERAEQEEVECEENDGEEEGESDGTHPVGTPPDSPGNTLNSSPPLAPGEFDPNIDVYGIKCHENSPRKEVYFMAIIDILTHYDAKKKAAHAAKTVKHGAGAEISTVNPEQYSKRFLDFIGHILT

[6] = target: T3, Inhibitor of nuclear factor kappa-B kinase subunit epsilon (Homo sapiens, UniProt Q14164)
T3 sequence (Q14164 whole entry): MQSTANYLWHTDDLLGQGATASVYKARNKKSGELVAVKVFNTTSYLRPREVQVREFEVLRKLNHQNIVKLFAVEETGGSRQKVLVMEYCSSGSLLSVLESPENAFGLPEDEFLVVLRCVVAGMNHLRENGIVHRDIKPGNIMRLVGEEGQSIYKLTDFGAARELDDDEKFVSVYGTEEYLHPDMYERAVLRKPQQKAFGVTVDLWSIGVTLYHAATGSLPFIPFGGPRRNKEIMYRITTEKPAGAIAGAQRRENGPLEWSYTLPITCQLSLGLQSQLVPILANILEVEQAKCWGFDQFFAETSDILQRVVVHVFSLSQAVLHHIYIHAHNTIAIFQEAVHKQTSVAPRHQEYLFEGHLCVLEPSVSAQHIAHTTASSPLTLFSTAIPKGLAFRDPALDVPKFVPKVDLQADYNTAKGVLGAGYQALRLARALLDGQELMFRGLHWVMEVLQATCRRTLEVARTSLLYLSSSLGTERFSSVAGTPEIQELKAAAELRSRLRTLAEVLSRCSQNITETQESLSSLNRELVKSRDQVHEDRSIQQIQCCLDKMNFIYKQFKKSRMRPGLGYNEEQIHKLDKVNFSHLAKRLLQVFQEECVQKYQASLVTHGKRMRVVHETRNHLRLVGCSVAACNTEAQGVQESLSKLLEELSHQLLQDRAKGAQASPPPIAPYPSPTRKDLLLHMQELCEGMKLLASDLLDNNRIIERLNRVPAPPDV

[7] = target: Phosphatidylethanolamine-binding protein 1 (Homo sapiens, UniProt P30086)
[8] = target: Serine/threonine-protein kinase Nek7 (Homo sapiens, UniProt Q8TDX7)
[9] = target: Choline-phosphate cytidylyltransferase A (Homo sapiens, UniProt P49585)
[10] = target: Guanine nucleotide-binding protein G(i) subunit alpha-2 (Homo sapiens, UniProt P04899)
Ephrin type-A receptor 7 = Ephrin type-A receptor 7 (Homo sapiens, UniProt Q15375)
[11] = target: T4, Cyclin-dependent kinase-like 5 (Homo sapiens, UniProt O76039)
T4 sequence (O76039 whole entry): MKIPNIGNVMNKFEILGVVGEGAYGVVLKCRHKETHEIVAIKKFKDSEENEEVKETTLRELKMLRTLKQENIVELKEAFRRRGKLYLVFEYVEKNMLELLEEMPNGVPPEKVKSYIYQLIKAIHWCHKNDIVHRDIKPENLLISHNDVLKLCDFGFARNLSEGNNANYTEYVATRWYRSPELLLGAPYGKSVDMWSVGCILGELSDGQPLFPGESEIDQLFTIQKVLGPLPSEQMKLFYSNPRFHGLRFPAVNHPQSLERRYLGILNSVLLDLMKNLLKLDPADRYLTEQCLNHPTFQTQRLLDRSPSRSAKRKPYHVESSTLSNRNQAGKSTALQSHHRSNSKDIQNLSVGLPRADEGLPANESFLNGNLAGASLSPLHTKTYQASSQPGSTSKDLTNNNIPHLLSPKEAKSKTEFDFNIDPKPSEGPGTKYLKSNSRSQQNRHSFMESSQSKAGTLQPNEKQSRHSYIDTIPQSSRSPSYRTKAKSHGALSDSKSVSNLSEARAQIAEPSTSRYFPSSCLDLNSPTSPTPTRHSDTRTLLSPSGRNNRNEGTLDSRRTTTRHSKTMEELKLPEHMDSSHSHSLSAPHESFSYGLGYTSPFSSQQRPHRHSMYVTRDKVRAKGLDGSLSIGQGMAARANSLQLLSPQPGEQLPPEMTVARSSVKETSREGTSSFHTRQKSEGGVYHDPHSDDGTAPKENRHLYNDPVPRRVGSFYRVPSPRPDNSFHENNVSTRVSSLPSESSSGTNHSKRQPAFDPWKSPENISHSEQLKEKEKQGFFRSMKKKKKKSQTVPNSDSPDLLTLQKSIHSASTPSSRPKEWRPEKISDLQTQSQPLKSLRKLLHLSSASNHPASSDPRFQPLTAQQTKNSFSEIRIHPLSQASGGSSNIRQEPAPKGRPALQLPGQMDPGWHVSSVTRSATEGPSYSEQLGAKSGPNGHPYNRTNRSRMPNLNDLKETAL

[12] = target: Proto-oncogene tyrosine-protein kinase receptor Ret (Homo sapiens, UniProt P07949)
Also: in the data inactive means no Kd found up to 30 µM.

Choline-phosphate cytidylyltransferase A, sequence (P49585 whole entry): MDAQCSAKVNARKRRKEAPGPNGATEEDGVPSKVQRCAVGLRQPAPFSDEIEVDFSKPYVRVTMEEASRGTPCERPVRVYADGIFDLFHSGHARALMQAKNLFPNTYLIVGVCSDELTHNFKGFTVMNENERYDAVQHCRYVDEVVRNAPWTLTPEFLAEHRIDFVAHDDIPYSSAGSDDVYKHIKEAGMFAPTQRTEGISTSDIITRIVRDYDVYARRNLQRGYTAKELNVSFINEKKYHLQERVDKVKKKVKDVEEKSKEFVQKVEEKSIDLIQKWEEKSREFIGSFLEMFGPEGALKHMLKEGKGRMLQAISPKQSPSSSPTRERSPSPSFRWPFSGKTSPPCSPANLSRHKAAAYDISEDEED
Serine/threonine-protein kinase MRCK gamma, sequence (Q6DT37 whole entry): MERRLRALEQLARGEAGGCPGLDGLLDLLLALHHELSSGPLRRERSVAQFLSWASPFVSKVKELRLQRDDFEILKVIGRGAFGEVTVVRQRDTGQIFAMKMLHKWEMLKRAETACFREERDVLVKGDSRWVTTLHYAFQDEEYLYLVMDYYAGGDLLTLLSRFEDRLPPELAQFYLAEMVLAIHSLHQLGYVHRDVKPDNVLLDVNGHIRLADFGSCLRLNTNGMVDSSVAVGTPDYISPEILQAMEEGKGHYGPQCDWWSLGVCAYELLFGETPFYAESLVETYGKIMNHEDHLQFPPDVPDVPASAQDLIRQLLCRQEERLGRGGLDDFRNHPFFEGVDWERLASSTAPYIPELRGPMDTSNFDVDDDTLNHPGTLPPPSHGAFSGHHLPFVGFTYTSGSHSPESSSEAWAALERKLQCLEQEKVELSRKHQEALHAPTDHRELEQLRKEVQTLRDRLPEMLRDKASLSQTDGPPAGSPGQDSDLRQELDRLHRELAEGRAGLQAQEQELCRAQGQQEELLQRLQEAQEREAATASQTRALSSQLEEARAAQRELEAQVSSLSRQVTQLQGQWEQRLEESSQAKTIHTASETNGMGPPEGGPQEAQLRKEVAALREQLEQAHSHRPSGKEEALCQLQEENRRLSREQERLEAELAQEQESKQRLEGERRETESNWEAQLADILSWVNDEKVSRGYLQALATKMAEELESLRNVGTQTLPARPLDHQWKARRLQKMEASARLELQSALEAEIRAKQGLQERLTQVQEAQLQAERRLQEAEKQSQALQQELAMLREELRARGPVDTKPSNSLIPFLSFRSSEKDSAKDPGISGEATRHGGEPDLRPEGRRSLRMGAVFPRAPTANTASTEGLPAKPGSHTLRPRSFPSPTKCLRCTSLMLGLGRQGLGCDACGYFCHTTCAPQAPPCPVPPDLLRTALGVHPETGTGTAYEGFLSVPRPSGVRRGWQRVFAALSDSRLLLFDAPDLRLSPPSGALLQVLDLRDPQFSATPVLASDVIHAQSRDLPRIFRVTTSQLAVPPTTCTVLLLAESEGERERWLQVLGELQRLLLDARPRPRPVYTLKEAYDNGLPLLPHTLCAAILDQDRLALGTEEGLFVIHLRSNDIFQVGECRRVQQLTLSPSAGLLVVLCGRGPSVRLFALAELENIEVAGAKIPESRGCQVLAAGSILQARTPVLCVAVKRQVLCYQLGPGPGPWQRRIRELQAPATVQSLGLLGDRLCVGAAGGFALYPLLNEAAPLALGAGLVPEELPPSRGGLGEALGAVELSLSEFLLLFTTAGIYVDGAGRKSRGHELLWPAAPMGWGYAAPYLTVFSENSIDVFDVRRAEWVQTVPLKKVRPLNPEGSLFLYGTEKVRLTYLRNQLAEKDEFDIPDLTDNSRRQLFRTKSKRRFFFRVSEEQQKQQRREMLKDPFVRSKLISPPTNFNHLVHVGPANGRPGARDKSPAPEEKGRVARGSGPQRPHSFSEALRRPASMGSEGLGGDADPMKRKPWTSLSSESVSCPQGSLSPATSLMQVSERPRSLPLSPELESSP
Guanine nucleotide-binding protein G(i) subunit alpha-2, sequence (P04899 whole entry): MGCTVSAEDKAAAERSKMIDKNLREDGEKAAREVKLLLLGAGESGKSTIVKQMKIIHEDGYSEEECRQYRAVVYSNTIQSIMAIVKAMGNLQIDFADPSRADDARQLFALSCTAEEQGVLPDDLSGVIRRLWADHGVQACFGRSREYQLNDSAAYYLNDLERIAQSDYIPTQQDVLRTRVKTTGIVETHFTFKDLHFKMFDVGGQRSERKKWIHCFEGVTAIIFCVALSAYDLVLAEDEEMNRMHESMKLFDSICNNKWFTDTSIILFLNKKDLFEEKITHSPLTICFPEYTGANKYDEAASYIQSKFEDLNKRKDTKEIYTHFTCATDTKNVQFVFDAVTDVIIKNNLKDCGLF
Serine/threonine-protein kinase Nek7, sequence (Q8TDX7 whole entry): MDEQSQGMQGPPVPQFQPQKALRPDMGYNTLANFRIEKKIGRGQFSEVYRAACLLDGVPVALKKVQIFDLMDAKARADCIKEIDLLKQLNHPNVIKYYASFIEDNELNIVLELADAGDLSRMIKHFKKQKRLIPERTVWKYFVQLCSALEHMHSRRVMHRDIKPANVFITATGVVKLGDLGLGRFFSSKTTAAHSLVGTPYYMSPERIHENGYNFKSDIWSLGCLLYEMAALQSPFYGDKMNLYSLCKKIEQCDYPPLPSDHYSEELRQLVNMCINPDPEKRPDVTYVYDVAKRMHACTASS
Phosphatidylethanolamine-binding protein 1, sequence (P30086 whole entry): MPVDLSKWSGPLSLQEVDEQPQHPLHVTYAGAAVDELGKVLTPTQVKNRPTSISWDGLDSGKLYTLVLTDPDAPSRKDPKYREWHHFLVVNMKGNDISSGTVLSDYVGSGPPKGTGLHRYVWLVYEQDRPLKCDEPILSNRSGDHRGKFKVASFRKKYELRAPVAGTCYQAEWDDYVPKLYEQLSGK
Ephrin type-A receptor 7, sequence (Q15375 whole entry): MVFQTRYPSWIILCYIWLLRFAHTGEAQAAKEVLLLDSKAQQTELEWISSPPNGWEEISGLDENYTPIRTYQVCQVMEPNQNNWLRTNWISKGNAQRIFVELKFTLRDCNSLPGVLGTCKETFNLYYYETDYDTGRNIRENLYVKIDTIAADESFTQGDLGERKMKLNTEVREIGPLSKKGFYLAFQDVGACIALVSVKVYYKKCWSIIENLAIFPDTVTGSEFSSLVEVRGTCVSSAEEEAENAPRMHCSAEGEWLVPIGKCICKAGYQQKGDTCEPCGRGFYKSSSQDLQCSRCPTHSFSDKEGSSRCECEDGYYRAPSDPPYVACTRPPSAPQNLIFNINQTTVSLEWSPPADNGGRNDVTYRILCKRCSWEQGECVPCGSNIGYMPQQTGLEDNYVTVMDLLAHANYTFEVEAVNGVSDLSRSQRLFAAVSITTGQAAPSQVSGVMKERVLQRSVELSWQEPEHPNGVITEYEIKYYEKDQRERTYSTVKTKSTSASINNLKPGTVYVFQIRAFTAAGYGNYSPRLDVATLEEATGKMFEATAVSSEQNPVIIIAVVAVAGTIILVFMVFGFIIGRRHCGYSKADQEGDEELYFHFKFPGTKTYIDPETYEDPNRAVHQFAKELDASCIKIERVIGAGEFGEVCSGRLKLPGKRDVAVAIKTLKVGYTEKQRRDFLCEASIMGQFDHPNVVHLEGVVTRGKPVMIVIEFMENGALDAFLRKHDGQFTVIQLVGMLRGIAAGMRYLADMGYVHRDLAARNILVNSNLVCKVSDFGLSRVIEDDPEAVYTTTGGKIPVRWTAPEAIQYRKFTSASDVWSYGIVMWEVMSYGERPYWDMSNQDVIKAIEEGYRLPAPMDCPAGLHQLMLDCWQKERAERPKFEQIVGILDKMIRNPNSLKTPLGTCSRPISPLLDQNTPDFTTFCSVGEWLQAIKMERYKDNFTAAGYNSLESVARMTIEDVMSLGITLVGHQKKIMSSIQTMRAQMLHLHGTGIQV
Proto-oncogene tyrosine-protein kinase receptor Ret, sequence (P07949 whole entry): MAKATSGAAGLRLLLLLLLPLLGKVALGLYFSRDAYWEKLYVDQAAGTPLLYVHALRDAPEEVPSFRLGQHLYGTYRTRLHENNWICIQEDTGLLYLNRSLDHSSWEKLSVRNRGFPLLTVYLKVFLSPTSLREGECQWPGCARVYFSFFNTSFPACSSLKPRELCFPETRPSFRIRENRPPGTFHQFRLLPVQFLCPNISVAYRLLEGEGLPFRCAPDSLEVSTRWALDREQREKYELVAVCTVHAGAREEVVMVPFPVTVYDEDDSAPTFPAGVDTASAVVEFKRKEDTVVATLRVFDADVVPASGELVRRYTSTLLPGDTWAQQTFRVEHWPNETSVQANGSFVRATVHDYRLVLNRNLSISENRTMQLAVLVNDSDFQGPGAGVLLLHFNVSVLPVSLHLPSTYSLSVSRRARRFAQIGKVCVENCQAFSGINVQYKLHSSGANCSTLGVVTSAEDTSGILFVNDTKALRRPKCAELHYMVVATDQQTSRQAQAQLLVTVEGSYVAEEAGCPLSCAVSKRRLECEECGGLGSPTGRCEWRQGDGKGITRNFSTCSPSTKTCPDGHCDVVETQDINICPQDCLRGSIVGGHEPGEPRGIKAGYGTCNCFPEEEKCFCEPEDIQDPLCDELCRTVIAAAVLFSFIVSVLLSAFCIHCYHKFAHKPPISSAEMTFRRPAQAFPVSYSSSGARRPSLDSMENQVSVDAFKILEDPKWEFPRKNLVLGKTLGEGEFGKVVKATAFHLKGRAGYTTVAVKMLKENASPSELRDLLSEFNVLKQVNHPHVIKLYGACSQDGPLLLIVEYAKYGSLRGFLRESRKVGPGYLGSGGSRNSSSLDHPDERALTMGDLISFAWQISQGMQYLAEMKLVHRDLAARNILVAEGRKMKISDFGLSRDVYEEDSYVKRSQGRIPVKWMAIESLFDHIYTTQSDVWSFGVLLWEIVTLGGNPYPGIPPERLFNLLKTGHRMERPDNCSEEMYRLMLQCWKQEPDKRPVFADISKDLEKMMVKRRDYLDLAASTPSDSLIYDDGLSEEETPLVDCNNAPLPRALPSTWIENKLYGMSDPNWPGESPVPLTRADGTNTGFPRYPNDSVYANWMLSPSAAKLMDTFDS

Kd [1] | Kd [2] | Kd [3] | Kd [4] | Kd [5] | Kd [6] | Kd [7] | Kd [8] | Kd [9] | Kd [10] | Kd (Ephrin type-A receptor 7) | Kd [11] | Kd [12] | Compound
> 30 µM (inactive) | > 30 µM (inactive) | > 30 µM (inactive) | > 30 µM (inactive) | > 30 µM (inactive) | > 30 µM (inactive) | > 30 µM (inactive) | > 30 µM (inactive) | > 30 µM (inactive) | > 30 µM (inactive) | – | – | – | CNC(=O)c1cc(Oc2ccc(NC(=O)Nc3ccc(Cl)c(C(F)(F)F)c3)c(F)c2)ccn1 [REGORAFENIB]
> 30 µM (inactive) | > 30 µM (inactive) | > 30 µM (inactive) | > 30 µM (inactive) | – | 0.342 µM (active) | > 30 µM (inactive) | > 30 µM (inactive) | > 30 µM (inactive) | > 30 µM (inactive) | > 30 µM (inactive) | > 30 µM (inactive) | 1.33 µM (active) | O=C(Nc1ccc(-c2ccnc(Nc3ccc(N4CCOCC4)cc3)n2)cc1)C1CCCN1 (stereo not drawn) [XL-019]
> 30 µM (inactive) | > 30 µM (inactive) | > 30 µM (inactive) | > 30 µM (inactive) | > 30 µM (inactive) | > 30 µM (inactive) | > 30 µM (inactive) | > 30 µM (inactive) | – | > 30 µM (inactive) | > 30 µM (inactive) | – | > 30 µM (inactive) | CNS(=O)(=O)Nc1nccc(Cc2c(C)c3ccc(Oc4ncccn4)cc3oc2=O)c1F [AVUTOMETINIB]
– | > 30 µM (inactive) | > 30 µM (inactive) | > 30 µM (inactive) | – | – | > 30 µM (inactive) | – | > 30 µM (inactive) | > 30 µM (inactive) | – | – | – | Cc1cc(Nc2cc(N3CCN(C)CC3)nc(/C=C/c3ccccc3)n2)n[nH]1 [ENMD-2076]
> 30 µM (inactive) | > 30 µM (inactive) | > 30 µM (inactive) | > 30 µM (inactive) | > 30 µM (inactive) | > 30 µM (inactive) | > 30 µM (inactive) | > 30 µM (inactive) | > 30 µM (inactive) | > 30 µM (inactive) | > 30 µM (inactive) | > 30 µM (inactive) | 7.48 µM (active) | Cc1cc2c(F)c(Oc3ncnn4cc(OC[C@@H](C)OC(=O)[C@H](C)N)c(C)c34)ccc2[nH]1 [BRIVANIB ALANINATE]
> 30 µM (inactive) | > 30 µM (inactive) | – | 0.04 µM | > 30 µM (inactive) | > 30 µM (inactive) | – | > 30 µM (inactive) | > 30 µM (inactive) | > 30 µM (inactive) | > 30 µM (inactive) | > 30 µM (inactive) | > 30 µM (inactive) | COc1cc(OC)c(/C=C/S(=O)(=O)Cc2ccc(OC)c(NCC(=O)O)c2)c(OC)c1 [RIGOSERTIB]
> 30 µM (inactive) | > 30 µM (inactive) | > 30 µM (inactive) | > 30 µM (inactive) | > 30 µM (inactive) | > 30 µM (inactive) | > 30 µM (inactive) | > 30 µM (inactive) | > 30 µM (inactive) | > 30 µM (inactive) | > 30 µM (inactive) | > 30 µM (inactive) | > 30 µM (inactive) | Cn1cc(-c2ccc3nnc(C(F)(F)c4ccc5ncccc5c4)n3n2)cn1 [JNJ-38877605]
> 30 µM (inactive) | > 30 µM (inactive) | > 30 µM (inactive) | > 30 µM (inactive) | > 30 µM (inactive) | > 30 µM (inactive) | > 30 µM (inactive) | > 30 µM (inactive) | > 30 µM (inactive) | > 30 µM (inactive) | – | > 30 µM (inactive) | > 30 µM (inactive) | COCCNCc1ccc(-c2cc3nccc(Oc4ccc(NC(=S)NC(=O)Cc5ccc(F)cc5)cc4F)c3s2)nc1 [GLESATINIB]
> 30 µM (inactive) | > 30 µM (inactive) | > 30 µM (inactive) | > 30 µM (inactive) | > 30 µM (inactive) | > 30 µM (inactive) | > 30 µM (inactive) | – | – | > 30 µM (inactive) | > 30 µM (inactive) | > 30 µM (inactive) | > 30 µM (inactive) | C[C@@H]1CN(Cc2ccc(F)cc2)[C@@H](C)CN1C(=O)c1cc2c(C(=O)C(=O)N(C)C)cn(C)c2cc1Cl [TALMAPIMOD]
> 30 µM (inactive) | > 30 µM (inactive) | > 30 µM (inactive) | > 30 µM (inactive) | > 30 µM (inactive) | > 30 µM (inactive) | > 30 µM (inactive) | > 30 µM (inactive) | > 30 µM (inactive) | > 30 µM (inactive) | > 30 µM (inactive) | – | > 30 µM (inactive) | CO[C@H]1C[C@@H]2CC[C@@H](C)[C@@](O)(O2)C(=O)C(=O)N2CCCC[C@H]2C(=O)O[C@H]([C@H](C)C[C@@H]2CC[C@@H](OCCO)[C@H](OC)C2)CC(=O)[C@H](C)/C=C(\C)[C@@H](O)[C@@H](OC)C(=O)[C@H](C)C[C@H](C)/C=C/C=C/C=C/1C [EVEROLIMUS]
> 30 µM (inactive) | > 30 µM (inactive) | > 30 µM (inactive) | > 30 µM (inactive) | > 30 µM (inactive) | > 30 µM (inactive) | > 30 µM (inactive) | > 30 µM (inactive) | > 30 µM (inactive) | > 30 µM (inactive) | > 30 µM (inactive) | > 30 µM (inactive) | 2.42 µM (active) | Cc1ccc(NC(=O)c2ccc(CN3CC[C@H](N(C)C)C3)c(C(F)(F)F)c2)cc1Nc1nccc(-c2cncnc2)n1 [BAFETINIB]

Compound | Kd [1] | Kd [2] | Kd [3] | Kd [4] | Kd [5] | Kd [6] | Kd [7] | Kd [8] | Kd [9] | Kd [10] | Kd (Ephrin type-A receptor 7) | Kd [11] | Kd [12]
O=C(Nc1cccc(Cl)c1)Nc1ncc(CCNc2ncnc3ccsc23)s1 [SNS-314] | – | > 30 µM (inactive) | > 30 µM (inactive) | > 30 µM (inactive) | > 30 µM (inactive) | – | > 30 µM (inactive) | > 30 µM (inactive) | – | > 30 µM (inactive) | > 30 µM (inactive) | > 30 µM (inactive) | –
